# Experiments:
# [1] = test system: IR-induced senescent [SEN(IR)] cells; test: Rescue of RSL3-induced ferroptosis in IR-induced senescent cells (CCK8 survival); assay type: cell-based
# Procedure: Non-senescent (NS: mock irradiated) or IR-induced senescent [SEN(IR)] cells were treated 10 days after irradiation with […] RSL3 and the indicated ferroptosis antagonist, followed by cell survival measurement by CCK8 assay. A. Cells were treated with ferrostatin-1 (FSN1—1 μM) at the same time as RSL3. B. Cells were given the ALOX5 and ALOX15 inhibitor zileuton (Zil—50 μM) at the same time as RSL3. C. Cells were given iron chelators deferoxamine (DFX—25 μM) or salicylaldehyde isonicotinoyl hydrazine (SIH—100 μM) at the same time as RSL3. D. Cells were given ACSL4 inhibitors rosiglitazone (ROSI—100 μM) or PRGL493 (PRGL—100 μM) for 72 h prior to RSL3. ***=p<0.001
# The inventor next sought to further elucidate the potential mechanisms for induction of ferroptosis in senescent cells by the disclosed senolytic drugs. The inventor rescued ferroptosis in senescent cells induced by contacting the cells with RSL3 and ferrostatin-1 (FSN1), which inhibits lipid peroxidation (FIG. 6A), zileuton (5- and 15-lipoxygenase inhibitor), which protects cells from lipoxygenase-induced membrane peroxidation (FIG. 6B), iron chelators deferoxamine or salicylaldehyde isonicotinoyl hydrazine (FIG. 6C), and ACSL4 inhibitors rosiglitazone or PRGL493 (FIG. 6D).
# [2] = test system: senescent cells induced with 10 Gy of IR; test: Cell survival (CCK8) of IR-induced senescent cells vs non-senescent controls; assay type: cell-based
# Procedure: (§1) A. RNA levels of GPX4 in cells induced to senesce by ionizing radiation (IR), mitochondrial dysfunction (MiDAS), or lentiviral overexpression of […] [SEN(RAS)]. Non-senescent cells induced by either mock treatment (NS) or empty lentiviral vector (Vector) served as controls. RNA levels measure by quantitative RT-PCR and normalized to actin. B—C. Cells were induced to senesce by 24 h of treatment with 250 nM doxorubicin [SEN(DOXO)] or control [NS (DMSO)], and 10 days later were given the indicated drug doses for 24 h. D. Cells were induced to senesce with 10 Gy of IR and 10 days later given the indicated drug doses for 24 h. E-F. Cells were induced to senesce with 10 Gy of IR and 10 days later given the indicated drug doses for 72 h. Cell survival was then measured by colorimetric assay (CCK8). *=p<0.01
# Preliminary data: Senescent cells appear primed to undergo ferroptosis. Not only do they elevate ALOX enzymes (FIG. 1A) and PUFA levels (FIG. 1B), but the lipid hydroxide products of these enzymes are elevated (FIG. 1C), as are byproducts of lipid peroxidation, (e.g. 4-HNE and 4-HDDE (FIG. 1D)). Lipid peroxidation-sensitive probes, e.g., C11-BODIPY, indicate increased lipid peroxidation during senescence. Furthermore, senescent cells accumulate iron in their cytosol. […]
# senescent cells = test: Ferroptosis induction in senescent relative to non-senescent cells (general statement); assay type: cell-based; conditions: general statement in description
# Text: While many of these oxylipins can drive pathology, such as in the case of pulmonary fibrosis, this may also result in a vulnerability that allows them to be targeted for elimination. Among the oxylipin synthesis enzymes elevated during senescence are arachidonate 5-, 12-, 15-, and 15B-lipoxygenases (ALOX5, 12, 15, and 15B), as well as ALOX5 activating protein (ALOX5AP). These lipoxygenases produce oxylipins, such as the leukotrienes, by acting on free arachidonic acid inside of the cell. However, these enzymes may also peroxidize arachidonic acid that is bound (esterified) in the plasma membrane. Lipid peroxides then react with labile iron in the cytosol via Fenton reaction to result in an exponential chain reaction of lipid peroxidation, ultimately resulting in a form of cell death known as “ferroptosis”. […] Other compounds, such as artemisinin and its derivatives interact with labile iron to increase lipid peroxidation. Since senescent cells also show elevated levels of labile iron, in addition to lipoxygenases, these cells are especially sensitive to induction of ferroptosis. […] As used herein, “senolytic” refers to the property of a molecule, compound, or composition to selectively kill senescent cells. Thus, ML-210, RSL3, FIN56, erastin, artemisinin, and related molecules are useful for the treatment of chronic degenerative diseases that are characterized by cellular senescence.
# [3] = test system: senescent cells [SEN(DOXO)]; test: Cell survival (CCK8) of doxorubicin-induced senescent cells vs non-senescent controls; assay type: cell-based; conditions: SEN(DOXO) (250 nM doxorubicin 24 h) vs NS (DMSO); drug given 10 days later for 24 h; FIG. 5B-C
# Procedure: as §1, with “*=p<0.01 Preliminary data: Senescent cells appear primed to undergo ferroptosis. Not only do they elevate ALOX enzymes (FIG. 1A) and PUFA levels (FIG. 1B), but the lipid hydroxide products of these enzymes are elevated (FIG. 1C), as are byproducts of lipid peroxidation, (e.g. 4-HNE and 4-HDDE (FIG. 1D)). Lipid peroxidation-sensitive probes, e.g., C11-BODIPY, indicate increased lipid peroxidation during senescence. Furthermore, senescent cells accumulate iron in their cytosol. […]” for “*=p<0.01”
# [4] = test system: PTGES, ALOX5, LTC4S, LTA4H and ALOX5AP mRNA in liver; test: Liver oxylipin synthase mRNAs by qPCR in chemotherapy-induced senescence model; assay type: in vivo, p16-3MR mice; conditions: FIG. 3B
# Procedure: A. IMR-90 cells were proliferative in 10% serum, made quiescent by incubation for 3 days in 0.2% serum, or made senescent by treatment with 10 Gy X-rays (IR) or ethidium bromide to induce mitochondrial-dysfunction induced senescence (MiDAS). Lipids were extracted from proliferating (PRO—10%), quiescent (QUI—0.2%), IR-induced senescent (SEN(IR)—10% or 0.2% serum), or mitochondrial dysfunction-associated senescent (MiDAS-0.2%) cells and analyzed by liquid chromatography combined with mass spectrometry (LC-MS). Putative oxylipins (A) were detected in control and senescent cells. B. p16-3MR mice were given a single dose (10 mg/kg) of doxorubicin (DOXO) or phosphate-buffered saline (PBS) by intraperitoneal (i.p.) injection. After 5 days, mice were given GCV (25 mg/kg) or vehicle by i.p. injection for 5 consecutive days. Livers were harvested on day 10 and analyzed for oxylipin synthase mRNAs by qPCR. Heat maps indicate averages of at least 5 mice (*=p<0.05, 1-way ANOVA). C. C57BL/6 mice were aged for 6 (young) or 24 (old) months. Kidneys were harvested from mice and analyzed for oxylipin synthase RNA levels by qPCR.
# Briefly, mice were treated with either control (phosphate buffered saline, (PBS)), doxorubicin (DOXO), or the combination of DOXO and ganciclovir (GCV). GCV is known to eliminate senescent cells in the liver at the concentrations administered, i.e., 25 mg/kg.
# [5] = given at the same time as 0.1 mM RSL3, FSN1 1 μM, Zil 50 μM, DFX 25 μM, SIH 100 μM, FIG. 6A-C
Compound,"rescue of RSL3-induced ferroptosis in senescent cells (cell survival, CCK8) [1, 5]",selective induction of ferroptosis in senescent cells relative to non-senescent cells (senescent cells),also measured
CCOC(=O)c1ccc(NC2CCCCC2)c(N)c1 [ferrostatin-1],rescued induction of ferroptosis in senescent cells,,
Cc1onc(C(=O)N2CCN(C(c3ccc(Cl)cc3)c3ccc(Cl)cc3)CC2)c1[N+](=O)[O-] [ML-210],,selectively induces ferroptosis in senescent cells relative to non-senescent cells,"selective induction of ferroptosis in senescent cells (cell survival, CCK8) ([2]; 10 Gy IR senescent vs non-senescent (NS) cells, drug given 10 days later for 24 h, FIG. 5D): selectively induced ferroptosis in senescent cells and not control non-senescent (NS) cells"
O=S(=O)(NC1CCCCC1)c1ccc2c(c1)C(=NO)c1cc(S(=O)(=O)NC3CCCCC3)ccc1-2 [FIN56],,selectively induces ferroptosis in senescent cells relative to non-senescent cells,
C[C@@H]1CC[C@H]2[C@@H](C)C(=O)O[C@@H]3O[C@@]4(C)CC[C@@H]1[C@]32OO4 [artemisinin],,,"cell death in senescent cells vs control cells (cell survival, CCK8) ([2]; 10 Gy IR, drug given 10 days later for 72 h, several concentrations, FIG. 5E-5F): induced significantly more cell death in senescent cells than control cells"
COC(=O)c1ccc([C@H]2c3[nH]c4ccccc4c3CC(C(=O)OC)N2C(=O)CCl)cc1 (stereo partly drawn) [RSL3],,selectively induces ferroptosis in senescent cells relative to non-senescent cells,"selective killing of senescent cells (cell survival, CCK8) [3]: selectively killed senescent cells"
CC(=O)NC1=NC(c2cn(-c3ccccc3)nc2-c2ccc(C)o2)n2c(nc3ccccc32)N1 (stereo not drawn) [PRGL493],,,"rescue of RSL3-induced ferroptosis in senescent cells (cell survival, CCK8) ([1]; given for 72 h prior to 0.1 mM RSL3, ROSI 100 μM, PRGL 100 μM, FIG. 6D): rescued induction of ferroptosis in senescent cells"
salicylaldehyde isonicotinoyl hydrazine,rescued induction of ferroptosis in senescent cells,,
"COc1cccc2c1C(=O)c1c(O)c3c(c(O)c1C2=O)C[C@@](O)(C(=O)CO)C[C@@H]3O[C@H]1C[C@H](N)[C@H](O)[C@H](C)O1 [DOXO, doxorubicin]",,,"liver mRNA levels of PTGES, ALOX5, LTC4S, LTA4H and ALOX5AP ([4]; single dose 10 mg/kg i.p. vs PBS, livers harvested day 10): DOXO-dependent increase in the mRNA levels"
"Nc1nc(O)c2ncn(COC(CO)CO)c2n1 [GCV, ganciclovir]",,,"effect on DOXO-dependent increase of liver mRNA levels of PTGES, ALOX5, LTC4S, LTA4H and ALOX5AP ([4]; 25 mg/kg i.p. for 5 consecutive days, 5 days after DOXO): abrogates the DOXO-dependent increase in the mRNA levels"
CC(c1cc2ccccc2s1)N(O)C(N)=O (stereo not drawn) [zileuton],rescued induction of ferroptosis in senescent cells,,
